pEC50: −log10 of the molar value. Where a name gives a salt, the structure may show the parent alone.

Data set [1] has as its target T1, hα7-wt nAChR (Homo sapiens, UniProt P36544).
T1 construct: expressed in transfected cells; host or cells: GH4C1 cells (recombinant, stably over-expressing)
Put plainly: Ca2+ flux imaging (FDSS), potentiation of choline response. Type of data set: cell-based. The note with it: for pEC50: hα7-wt nAChR-expressing GH4C1 cells, potentiation of 100 μM choline, compounds 0.01 μM to 30 μM. Here is the method: Ca^2+ Flux Imaging (FDSS)
• Hanks buffered saline solution (HBSS, Invitrogen, Belgium), supplemented with 10 mM HEPES (Invitrogen, Belgium), CaCl2 to a final concentration of 5 mM, 0.1% Bovine serum albumin (Sigma-Aldrich NV, Belgium). b) Calcium-Sensitive Dye—Fluo-4AM • Fluo-4AM (Molecular Probes, USA) was dissolved in DMSO containing 10% Pluronic acid (Molecular Probes, USA) to give a stock solution which was diluted in assay buffer supplemented with 5 mM probenicid (Sigma, Aldrich NV, Belgium) to give a final concentration of 2 μM. c) 384-Well Plates • Black 384 well plate black/clear plates, PDL pre-coated (Corning, Incorporated, USA) d) Calcium Flux Measurement • A Functional drug screening system (FDSS, Hamamatsu) was used to measure intracellular free-calcium flux signals. Method
Monolayers of hα7-wt nAChR-expressing GH4C1 cells were grown in multi-well plates, in particular black-sided, transparent bottomed 384 well plates coated with poly-D-lysine for 24 hours prior to loading with a fluorescent calcium indicator, in a particular embodiment loading with fluo-4AM for up to 120 minutes.
PAM activity was detected in real time by applying the compound to be tested to the loaded cells along with a α7 nicotinic receptor agonist during constant monitoring of the cellular calcium mobilization by fluorescence in a FDSS. Compounds giving peak fluorescent responses greater than the response due to agonist alone, were considered to be α7 nAChR PAM's. In a particular embodiment, the α7 nicotinic receptor agonist was choline, a more particular embodiment choline applied at a sub-maximal concentration of 100 μM. In a further setting of the present invention the compounds to be tested were applied prior to the α7 nicotinic receptor agonist, in a particular embodiment up to 10 minutes prior to the agonist.
A control response to choline was calculated on each plate from the difference in peak in fluorescence in wells receiving either choline or assay buffer alone. Compounds of the present invention were tested at a concentration range from 0.01 μM to 30 μM. Compounds were considered to have an interesting activity when they potentiated the choline signal at least with 200% when tested at a concentration of 30 μM (the efficacy of 100 μM choline was defined as 100% in the absence of a PAM).
EC50 values (potency), maximal effect (% efficacy), and Hill slopes were estimated by fitting the sigmoidal equation to the data using GraphPad Prism (GraphPad Software, Inc., San Diego, Calif.). An EC50 (or pEC50) was determined as a concentration relating to half the maximal effect, when a clear sigmoidal curve with top plateau was obtained.

The target of data set [2] is T1, hα7-wt nAChR. The data set is described as follows: Whole-cell voltage-clamp recording, PAM type classification. The class given is cell-based. The note with it: qualitative kinetic properties; 1 mM choline; hα7-wt nAChR-expressing GH4C1 cells. More on the design: key: Type 1 compounds enhance the effect size of the current elicited by 1 mM choline but minimally alter the kinetics of the receptor.; Type 2 compounds enhance the effect size of the current elicited by 1 mM choline while reducing the rate and/or the extent of desensitization.; Type 3 compounds enhance the effect size of the current elicited by 1 mM choline. When tested at higher concentrations up to 10 μM they completely inhibit desensitization, in particular a 1 mM choline application of 250 milliseconds.; Type 4 compounds allow for an initial desensitization of the receptor followed by a re-opening of the receptor during agonist application. Here is the method:
The compounds of the present invention are classified as type 1-4, based on qualitative kinetic properties, as determined by whole-cell voltage-clamp recordings. This classification is based on the effect of an α7 PAM compound, as described hereinbefore, on the signal elicited by an agonist application. In particular, said agonist is choline at a concentration of 1 mM. In a preferred experimental setting, said α7 PAM compound and choline are simultaneously applied to the cell, as described hereinafter. Desensitization is defined as the closure of the receptor upon activation during the application of the agonist in whole-cell voltage-clamp electrophysiology measurements seen as the reduction of the […] current after initial activation by the agonist.
The definition of the PAM types 1-4 is described hereinafter: • Type 1 compounds enhance the effect size of the current elicited by 1 mM choline but minimally alter the kinetics of the receptor. In particular, the rate and the extent of desensitization, elicited by the agonist, is not affected. The compound-modulated response to 1 mM choline, therefore, is a close to linear scaling of the 1 mM choline response in absence of the α7 PAM compound. • Type 2 compounds enhance the effect size of the current elicited by 1 mM choline while reducing the rate and/or the extent of desensitization. • Type 3 compounds enhance the effect size of the current elicited by 1 mM choline. […] At low-potency concentrations of the α7 PAM compound, the agonist-induced activation, which is followed by desensitization, can still be separated from the compound-induced re-opening as an initial inward current-maximum. At higher potency concentrations of the α7 PAM compound, the re-opening occurs faster than the closure due to desensitization so that the initial current-maximum disappears.
The compounds of the present invention also have a potentiating effect on the response to choline when measured by whole-cell voltage-clamp electrophysiology in GH4C1 cells stably over-expressing the human wild-type α7 receptor, as described hereinafter.
Whole-Cell Voltage-Clamp Recording
Whole-cell voltage-clamp recording from mammalian cells has provided a powerful means of assessing the function of membrane proteins thought to be subunits of ligand-gated ion channels. Activation of such proteins by endogenous or exogenous ligands causes opening of a pore associated with the receptor through which ions flow down their electrochemical gradient. In the case of the hα7-wt nAChR-expressing GH4C1 recombinant cell line the preferential permeability to calcium of this receptor means that calcium flows into the cell upon activation by ACh, choline and other nicotinic ligands giving rise to a calcium current. Since this receptor rapidly desensitizes in the presence of an agonist it is important that an application system is used which is capable of very rapid switching of solutions (<100 ms) to prevent partial or full desensitisation of receptor responses coincident with the time of agonist application. Consequently, a second convenient technique to assess the enhancement of nicotinic efficacy is whole-cell voltage-clamp recording from hα7-wt nAChR-expressing GH4C1 cells coupled with a rapid-application system.
• The external recording solution consisted of 152 mM NaCl, 5 mM KCl, 1 mM MgCl2, 1 mM Calcium, 10 mM HEPES; pH 7.3. The internal recording solution consisted of 140 mM CsCl, 10 mM HEPES, 10 mM EGTA, 1 mM MgCl2, pH 7.3. • b) Patch-clamp recording was carried out using a Patch-clamp amplifier (Multiclamp 700A, Axon Instruments, CA, USA). The membrane potential of hα7-wt nAChR-expressing GH4C1 cells was voltage-clamped in the whole cell configuration (Hamill et al, 1981) with a borosilicate glass electrode of 1.5-3 MΩ tip resistance when filled with the internal recording solution. […]

T1 sequence (P36544 23-502): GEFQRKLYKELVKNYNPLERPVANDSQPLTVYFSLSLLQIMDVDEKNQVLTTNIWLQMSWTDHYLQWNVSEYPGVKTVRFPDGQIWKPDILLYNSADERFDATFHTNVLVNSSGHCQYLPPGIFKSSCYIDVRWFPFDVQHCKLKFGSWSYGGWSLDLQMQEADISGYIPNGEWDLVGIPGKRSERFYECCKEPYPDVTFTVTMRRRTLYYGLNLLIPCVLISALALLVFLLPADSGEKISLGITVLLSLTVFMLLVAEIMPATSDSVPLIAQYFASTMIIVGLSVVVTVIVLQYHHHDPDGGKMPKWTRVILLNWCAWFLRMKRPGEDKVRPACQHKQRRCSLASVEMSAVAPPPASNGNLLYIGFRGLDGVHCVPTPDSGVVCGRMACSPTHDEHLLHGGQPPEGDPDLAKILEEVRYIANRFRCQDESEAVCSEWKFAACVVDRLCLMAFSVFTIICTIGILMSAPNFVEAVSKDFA

Turning to `CCCCC(O)Cn1nc(Nc2ccc(F)c(F)c2)nc1-c1ccnc(C)c1` (racemic) [Compound E3, 1-[3-(3,4-Difluoro-phenylamino)-5-(2-methyl-pyridin-4-yl)-[1,2,4]triazol-1-yl]-hexan-2-ol], the melting point (commonly the temperature of the solid-liquid transition) amounted to 137.96 °C.
Compound `CCC(O)Cn1nc(Nc2ccc(F)c(F)c2)nc1-c1ccnc(C)c1` (single isomer, unassigned) [Compound E6] yielded a melting point of 142.72 °C. For the same compound, the negative logarithm of the EC50 (pEC50) (usually the EC50 on a negative log10 scale, so that one unit is a factor of ten) in data set [1] is 6.02. Further, the PAM_type in data set [2] is reported as 2.
With `CCCC(O)Cn1nc(Nc2ccc(F)c(F)c2)nc1-c1cc(C)nc(C)c1` (single isomer, unassigned) [Compound E13], the melting point was found to be 141.14 °C. Moreover, the maximal response (Emax) (usually the size of the effect at its maximum, as opposed to the concentration needed) in data set [1] (GH4-C1, maximal effect, efficacy of 100 μM choline defined as 100% in the absence of a PAM, GH4C1 cells) was 490%. Moreover, the negative logarithm of the EC50 (pEC50) in data set [1] is 6.61. For the same compound, the PAM_type in data set [2] came to 1.
Consider `CCCC(O)Cn1nc(Nc2ccc(F)c(F)c2)nc1-c1cc(C)nc(C)c1` (single isomer, unassigned) [Compound E14], for which the melting point stood at 139.48 °C. Besides, in data set [1], the pEC50 is 6.50. Also, the PAM_type in data set [2] is on record as 2.
The matching figures for `CCCC(O)Cn1nc(Nc2ccc(F)c(F)c2)nc1-c1ccnc(C)c1` (single isomer, unassigned) [Compound E15]: 133.1 °C, 6.17 and 1.
As for `CCCC(O)Cn1nc(Nc2ccc(F)c(F)c2)nc1-c1ccnc(C)c1` (single isomer, unassigned) [Compound E16], the melting point worked out at 134.82 °C. Also, the pEC50 in data set [1] is 6.38. Also, the PAM_type in data set [2] was 2.
`CCC(O)Cn1nc(Nc2cccc(Cl)c2)nc1-c1cc(C)nc(C)c1` (single isomer, unassigned) [Compound E18]: the pEC50 in data set [1] was 5.89. Also, the PAM_type in data set [2] was 1.
`CCC(O)Cn1nc(Nc2cc(OC)cc(C(F)(F)F)c2)nc1-c1ccnc(C)c1` (single isomer, unassigned) [Compound E20] displayed a melting point of 120.54 °C. The negative logarithm of the EC50 (pEC50) in data set [1] was 6.67. For the same compound, the PAM_type in data set [2] worked out at 4.
In the case of `CCC(O)Cn1nc(Nc2cccc(Cl)c2)nc1-c1cc(C)nc(C)c1` (single isomer, unassigned) [Compound E21], the pEC50 in data set [1] is 6.08. For the same compound, the PAM_type in data set [2] worked out at 2.
For `CCCC(O)Cn1nc(Nc2cccc(Cl)c2)nc1-c1cc(C)nc(C)c1` (single isomer, unassigned) [Compound E24], the negative-log EC50 (pEC50) in data set [1] was 6.07. The PAM_type in data set [2] turned out to be 2.
Consider `CCCCC(O)Cn1nc(Nc2ccc(F)c(F)c2)nc1-c1cc(C)nc(C)c1` (single isomer, unassigned; (-)) [Compound E4, (−)-1-[3-(3,4-Difluoro-phenylamino)-5-(2,6-dimethyl-pyridin-4-yl)-[1,2,4]triazol-1-yl]-hexan-2-ol], for which the melting point is 134.6 °C. Also, in data set [1], the pEC50 is 6.68.
With `CC[C@H](O)Cn1nc(Nc2ccc(F)c(F)c2F)nc1-c1ccnc(C)c1` [Compound E31, (S)-1-[5-(2-Methyl-pyridin-4-yl)-3-(2,3,4-trifluoro-phenylamino)-[1,2,4]-triazol-1-yl]-butan-2-ol], in data set [1], the negative-log EC50 (pEC50) is 6.26. In addition, the PAM_type in data set [2] worked out at 2.
On the same counts, the results for `CC[C@H](O)Cn1nc(Nc2ccc(F)c(F)c2F)nc1-c1cc(C)nc(C)c1` [Compound E32, (S)-1-[5-(2,6-Dimethyl-pyridin-4-yl)-3-(2,3,4-trifluoro-phenylamino)-[1,2,4]triazol-1-yl]-butan-2-ol] are 6.29 and 2.
Consider `CC[C@H](O)Cn1nc(Nc2ccc(F)c(F)c2F)nc1-c1cc(C)nc(C)c1.Cl` [Compound E33, (S)-1-[5-(2,6-Dimethyl-pyridin-4-yl)-3-(2,3,4-trifluoro-phenylamino)-[1,2,4]triazol-1-yl]-butan-2-ol HCl salt], for which the melting point was determined as 237.44 °C. The negative logarithm of the EC50 (pEC50) in data set [1] is 6.36.
Turning to `CC[C@H](O)Cn1nc(Nc2cccc(Cl)c2F)nc1-c1cc(C)nc(C)c1` [Compound E34, (S)-1-[3-(3-Chloro-2-fluoro-phenylamino)-5-(2,6-dimethyl-pyridin-4-yl)-[1,2,4]triazol-1-yl]-butan-2-ol], the pEC50 in data set [1] was 6.50. In addition, in data set [2], the PAM_type turned out to be 2.
Regarding `CC[C@H](O)Cn1nc(Nc2cccc(Cl)c2F)nc1-c1cc(C)nc(C)c1` [Compound E35, (S)-1-[3-(3-Chloro-2-fluoro-phenylamino)-5-(2,6-dimethyl-pyridin-4-yl)-[1,2,4]-triazol-1-yl]-butan-2-ol HCl salt], the pEC50 in data set [1] was 6.33.
For the compound `CC[C@H](O)Cn1nc(Nc2cc(F)cc(OC)c2)nc1-c1ccnc(C)c1` [Compound E36, (S)-1-[3-(3-Fluoro-5-methoxy-phenylamino)-5-(2-methyl-pyridin-4-yl)-[1,2,4]triazol-1-yl]butan-2-ol HCl salt], the negative-log EC50 (pEC50) in data set [1] is 5.68. Further, in data set [2], the PAM_type is listed as 2.
In the case of `CC[C@H](O)Cn1nc(Nc2cc(F)cc(OC)c2)nc1-c1cc(C)nc(C)c1.Cl` [Compound E37, (S)-1-[5-(2,6-Dimethyl-pyridin-4-yl)-3-(3-fluoro-5-methoxy-phenylamino)-[1,2,4]triazol-1-yl]-butan-2-ol HCl salt], in data set [1], the negative-log EC50 (pEC50) is 5.80. In addition, the PAM_type in data set [2] was found to be 2.

(Values after patent US8440701B2, “Trisubstituted 1,2,4 triazoles” (Janssen Pharmaceutica NV, priority 2007, dated 2013).)
